Experiments:
[1] = target: T1, human dopamine D3 receptor (Homo sapiens, UniProt P35462); experiment: Radioligand binding ([3H]-spiperone) to membranes of HEK-293 EBNA cells expressing human D3 receptor; conditions: human D3, 0.5 nM [3H]-spiperone, HEK-293 EBNA membranes, 1 h at RT
T1 construct: expressed in transfected cells; host or cells: HEK-293 EBNA cells, transient transfection; membrane preparation
Experimental: (§1) The ability of the compounds to bind to the 5-HT2A, D3 and D2 receptors was determined using radioligand binding to cloned receptors selectively expressed in HEK-293 EBNA cells.
(§2) Membrane Preparation for Human D2, Human D3 and Human 5-HT2A Receptors
(§3) HEK-293 EBNA cells were transiently transfected with expression plasmids encoding for the human D2 or D3 dopamine- or for the human 5-HT2A serotonin receptor, respectively. The cells were harvested 48 h post-transfection, washed three times with cold PBS and stored at −80° C. prior to use. The pellet was suspended in cold 50 mM Tris-HCl buffer containing 10 mM EDTA (pH 7.4) and homogenized with a Polytron (Kinematica AG, Basel, Switzerland) for 20-30 sec at 12.000 rpm. After centrifugation at 48.000×g for 30 min at 4° C., the pellet was resuspended in cold 10 mM Tris-HCl buffer containing 0.1 mM EDTA (pH 7.4), homogenized, and centrifuged as above. This pellet was further resuspended in a smaller volume of ice cold 10 mM Tris-HCl buffer containing 0.1 mM EDTA (pH 7.4) and homogenized with a Polytron for 20-30 sec at 12.000 rpm. The protein content of this homogenate was determined with the Bio-Rad (Bradford) Protein Assay (Biorad Laboratories GmbH, München, Germany) according to the instructions of the manufacturer using gamma globulin as the standard. This homogenate was stored at −80° C. in aliquots and thawed immediately prior to use.
(§4) Radioligand Binding Assay Conditions
(§5) Aliquots of membrane preparations were thawed at RT, resupended in assay buffer (D2, D3: 50 mM Tris-HCl, 120 mM NaCl, 5 mM MgCl2, 1 mM EDTA, 5 mM KCl, 1.5 mM CaCl2, pH=7.4; 5-HT2A: 50 mM Tris-HCl, 10 mM MgCl2, 1 mM EGTA, pH=7.4), homogenized with a Polytron for 20-30 sec at 12.000 rpm and adjusted to a final concentration of approximately 7.5 μg protein/well (D2, D3) and 15 μg protein/well (5-HT2A), respectively.
(§6) The binding affinity (Ki) of the compounds was determined using radioligand binding. Membranes were incubated in a total volume of 200 μl with a fixed concentration of radioligand (final concentration approximately 0.7 nM [^3H]-spiperone for D2, 0.5 nM [^3H]-spiperone for D3, and 1.1 nM [^3H]-ketanserin for 5-HT2A) and ten concentrations of test compound in ranging between 10 μM-0.1 nM for 1 h at RT. At the end of the incubation, the reaction mixtures were filtered on to unifilter 96-well white microplates with bonded GF/C filters (Packard BioScience, Zurich, Switzerland; preincubated for 1 h in 0.1% polyethylenimine (PEI) in assay buffer) with a Filtermate 196 harvester (Packard BioScience) and washed 3 times with cold assay buffer. The nonspecific binding was determined with equally composed reaction mixtures in the presence of 10 μM unlabelled spiperone. Per well 45 μl of Microscint 40 (Perkin Elmer, Schwerzenbach, Switzerland) was added, plates for sealed, shaken for 20 min and counted for 3 min on a Topcount Microplate Scintillation Counter (Canberra Packard SA, Zurich, Switzerland) with quenching correction.
(§7) The CPM value for each duplicate of a concentration of competing compound was averaged (y1), then the % specific binding was calculated according to the equation (((y1−non-specific)/(total binding-non-specific))×100). Graphs were plotted with the % specific binding using XLfit, a curve fitting program that iteratively plots the data using Levenburg Marquardt algorithm. The single site competition analysis equation used was y=A+((B−A)/(1+((x/C)^D))), where y is the % specific binding, A is the minimum y, B is the maximum y, C is the IC50, x is the log10 of the concentration of the competing compound and D is the slope of the curve (the Hill Coefficient). From these curves the IC50 (inhibition concentration at which 50% specific binding of the radioligand was displaced) and Hill coefficient were determined. […]

[2] = target: T2, human dopamine D2 receptor (Homo sapiens, UniProt P14416); experiment: Radioligand binding ([3H]-spiperone) to membranes of HEK-293 EBNA cells expressing human D2 receptor; conditions: human D2, 0.7 nM [3H]-spiperone, HEK-293 EBNA membranes, 1 h at RT
T2 construct: expressed in transfected cells; host or cells: HEK-293 EBNA cells, transient transfection; membrane preparation
Experimental: as §1, §2, §3, §4, §5, §6, §7

[3] = target: T3, human serotonin 5-HT2A receptor (Homo sapiens, UniProt P28223); experiment: Radioligand binding ([3H]-ketanserin) to membranes of HEK-293 EBNA cells expressing human 5-HT2A receptor; conditions: 1.1 nM [3H]-ketanserin, HEK-293 EBNA membranes, 1 h at RT
T3 construct: expressed in transfected cells; host or cells: HEK-293 EBNA cells, transient transfection; membrane preparation
Experimental: as §1, §2, §3, §4, §5, §6, §7

T2 sequence (P14416 whole entry): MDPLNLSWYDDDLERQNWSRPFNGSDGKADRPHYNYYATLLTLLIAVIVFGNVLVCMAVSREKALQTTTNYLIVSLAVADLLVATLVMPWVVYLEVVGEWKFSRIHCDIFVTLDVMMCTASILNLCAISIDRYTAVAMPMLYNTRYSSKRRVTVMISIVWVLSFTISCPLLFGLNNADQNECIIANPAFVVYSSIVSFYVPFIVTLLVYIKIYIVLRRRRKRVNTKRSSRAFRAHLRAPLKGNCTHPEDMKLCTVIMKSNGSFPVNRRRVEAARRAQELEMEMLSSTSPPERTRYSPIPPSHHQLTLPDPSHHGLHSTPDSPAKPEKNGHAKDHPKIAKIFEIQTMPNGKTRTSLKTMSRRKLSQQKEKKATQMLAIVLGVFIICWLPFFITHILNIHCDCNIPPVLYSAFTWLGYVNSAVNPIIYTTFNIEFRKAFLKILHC
T3 sequence (P28223 whole entry): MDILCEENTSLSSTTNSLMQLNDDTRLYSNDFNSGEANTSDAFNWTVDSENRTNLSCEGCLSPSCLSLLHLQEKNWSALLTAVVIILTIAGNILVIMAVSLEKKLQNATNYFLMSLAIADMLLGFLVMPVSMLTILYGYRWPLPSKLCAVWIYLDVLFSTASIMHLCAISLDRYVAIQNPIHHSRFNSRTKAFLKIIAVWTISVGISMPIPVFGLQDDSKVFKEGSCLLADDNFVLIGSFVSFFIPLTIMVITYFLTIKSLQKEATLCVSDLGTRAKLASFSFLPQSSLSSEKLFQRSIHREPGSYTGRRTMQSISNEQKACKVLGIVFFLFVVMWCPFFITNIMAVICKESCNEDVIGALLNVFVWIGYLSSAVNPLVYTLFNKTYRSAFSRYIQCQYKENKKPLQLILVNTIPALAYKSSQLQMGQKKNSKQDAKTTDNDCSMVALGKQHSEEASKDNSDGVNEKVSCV
T1 sequence (P35462 whole entry): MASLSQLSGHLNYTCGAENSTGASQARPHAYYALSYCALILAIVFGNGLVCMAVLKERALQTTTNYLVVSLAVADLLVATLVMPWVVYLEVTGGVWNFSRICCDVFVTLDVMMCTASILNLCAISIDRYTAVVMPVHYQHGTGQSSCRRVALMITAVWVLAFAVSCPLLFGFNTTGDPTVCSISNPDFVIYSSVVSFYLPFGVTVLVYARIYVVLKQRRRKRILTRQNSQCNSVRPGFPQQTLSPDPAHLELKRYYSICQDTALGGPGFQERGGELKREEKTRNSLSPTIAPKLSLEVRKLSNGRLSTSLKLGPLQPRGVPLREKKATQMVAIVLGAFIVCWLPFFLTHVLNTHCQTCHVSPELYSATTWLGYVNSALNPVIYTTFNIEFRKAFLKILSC

Ki [1] [nM]	Ki [2] [nM]	Ki [3] [nM]	Compound
31.1	11200	16.7	CO[C@H]1CC[C@H](CC(=O)N[C@H]2CC[C@H](CCN3CCN(c4noc5cc(F)c(Cl)cc45)CC3)CC2)CC1 [Example 88, N-trans-(4-{2-[4-(5-Chloro-6-fluoro-benzo[d]isoxazol-3-yl)-piperazin-1-yl]-ethyl}-cyclohexyl)-2-trans-(4-methoxy-cyclohexyl)-acetamide]
33	> 2000	8	Cc1cc2c(N3CCN(CC[C@H]4CC[C@H](NC(=O)CC5CCCCO5)CC4)CC3)noc2cc1F (stereo partly drawn) [Example 117, N-trans-(4-{2-[4-(6-Fluoro-5-methyl-benzo[d]isoxazol-3-yl)-piperazin-1-yl]-ethyl}-cyclohexyl)-2-(tetrahydro-pyran-2-yl)-acetamide]
7.13	9710	6.88	O=C(CC1CCOCC1)N[C@H]1CC[C@H](CCN2CCN(c3noc4cc(F)c(F)cc34)CC2)CC1 [Example 63, N-trans-(4-{2-[4-(5,6-Difluoro-benzo[d]isoxazol-3-yl)-piperazin-1-yl]-ethyl}-cyclohexyl)-2-(tetrahydro-pyran-4-yl)-acetamide]
4.55	1070	16.8	O=C(CC1OCCCO1)N[C@H]1CC[C@H](CCN2CCN(c3noc4ccc(F)cc34)CC2)CC1 [Example 24, 2-[1,3]Dioxan-2-yl-N-trans-(4-{2-[4-(5-fluoro-benzo[d]isoxazol-3-yl)-piperazin-1-yl]-ethyl}-cyclohexyl)-acetamide]
9.45	11600	30.7	O=C(CC1CCOCC1)N[C@H]1CC[C@H](CCN2CCN(c3noc4cc(Cl)c(Cl)cc34)CC2)CC1 [Example 97, N-trans-(4-{2-[4-(5,6-Dichloro-benzo[d]isoxazol-3-yl)-piperazin-1-yl]-ethyl}-cyclohexyl)-2-(tetrahydro-pyran-4-yl)-acetamide]
1.96		6	O=C(CC(F)(F)F)N[C@H]1CC[C@H](CCN2CCN(c3noc4cc(F)c(Cl)cc34)CC2)CC1 [Example 93, N-trans-(4-{2-[4-(5-Chloro-6-fluoro-benzo[d]isoxazol-3-yl)-piperazin-1-yl]-ethyl}-cyclohexyl)-3,3,3-trifluoro-propionamide]

The next lines start with the molecule.

Compound	Ki [1] [nM]	Ki [2] [nM]	Ki [3] [nM]
CO[C@@H]1CC[C@@H](CC(=O)N[C@H]2CC[C@H](CCN3CCN(c4noc5ccccc45)CC3)CC2)C1 (relative stereo) [Example 3, N-trans-{4-[2-(4-Benzo[d]isoxazol-3-yl-piperazin-1-yl)-ethyl]-cyclohexyl]-2-trans-(3-methoxy-cyclopentyl)-acetamide]	13.9	355	482
COCCC(=O)N[C@H]1CC[C@H](CCN2CCN(c3noc4ccc(C)cc34)CC2)CC1 [Example 104, 3-Methoxy-N-trans-(4-{2-[4-(5-methyl-benzo[d]isoxazol-3-yl)-piperazin-1-yl]-ethyl}-cyclohexyl)-propionamide]	2.59	554	20.9
COC1CCCC(C(=O)N[C@H]2CC[C@H](CCN3CCN(c4noc5ccc(F)cc45)CC3)CC2)C1 (stereo partly drawn) [Example 16, 3-Methoxy-cyclohexanecarboxylic acid N-trans-(4-{2-[4-(5-fluoro-benzo[d]isoxazol-3-yl)-piperazin-1-yl]-ethyl}-cyclohexyl)-amide]	21.4	1440	14.4
CC1(CC(=O)N[C@H]2CC[C@H](CCN3CCN(c4noc5ccc(F)cc45)CC3)CC2)COC1 [Example 21, N-trans-(4-{2-[4-(5-Fluoro-benzo[d]isoxazol-3-yl)-piperazin-1-yl]-ethyl}-cyclohexyl)-2-(3-methyl-oxetan-3-yl)-acetamide]	2.61	307	11.1
